Converted amounts (≈) assume the structure as drawn.
Assays:
[1] = system: glycoprotein IIb-IIIa dependent platelet aggregation; experiment: ADP-induced platelet aggregation; assay type: cell-based, human; conditions: specificity control
Text: To address the possibility of a nonspecific effect of LNF III on cell-cell interaction involving platelets, the effect of LNF III on ADP-induced platelet aggregation was examined.

[2] = system: adherence of activated platelets to neutrophils (PADGEM-mediated); experiment: Phase-contrast cell adhesion assay: thrombin-activated platelets with neutrophils; assay type: cell-based, human; conditions: LNF isomers, FIG. 6
Procedure: Platelets were isolated by gel filtration from fresh anticoagulated blood obtained from normal human donors (Hsu-Lin et al., J. Biol. Chem., 259: 9121-9126 (1984)). Activated platelets were prepared by incubating cells without stirring for 20 minutes at 22° C. with thrombin at a final concentration of 0.25 U/ml. Fresh platelets were used in cell adhesion assays within 30 minutes of preparation.
Neutrophils were prepared by the method of English and Anderson (J. Immunol. Method, 5: 249-252 (1974)). The neutrophil preparations were greater than 95% pure by light microscopy. Monocytes were prepared by washing the mono-nuclear leukocyte fraction twice with human serum-5 mM EDTA and incubating the cells in RPMI 1640--10% fetal calf serum in sterile […] dishes for 2 hours at 37° C. The dishes were washed three times with PBS at 37° C. to remove nonadherent cells. PBS at 0° C. was added, and the cells were incubated at 4° C. for 1 hour. Adherent cells were gently detached with a rubber policeman, washed in PBS, and resuspended in RPMI 1640--1% fetal calf serum. Lymphocytes were obtained by washing the nonadherent cells with PBS and resuspending these cells in RPMI 1640--1% fetal calf serum. The purity of these preparations was established to be greater than 90% by light microscopy using Wright esterase and nonspecific esterase stains.
Twenty microliters of platelet suspension (2×10^8 /ml) was mixed with 20 μl of cell suspension (2×10^6 /ml) and incubated for 20 minutes at 22° C. in a microfuge tube. An aliquot of the cell suspension was then in a Neubauer chamber and evaluated by light microscropy using an Olympus model BH-2 microscope. Three samples from each assay were evaluated by counting 200 cells and scoring the percentage of cells with two or more adherent platelets (Jungi et al., Blood 67: 629-636 (1986)). Antibody inhibition studies were performed by preincubating cells (20 μl; 3×10^6 /ml) with 20 μl of antibody solution for 20 minutes at 22° C. Subsequently, 20 μl of platelet suspension was added, and the mixture was incubated for 20 minutes at 22° C. Samples were analyzed as above.
To identify the PADGEM recognition site on leukocytes that mediates the binding of activated platelets, monoclonal antibodies directed at various antigens on the surface of monocytes and neutrophils were tested for their ability to inhibit the interaction of these cells with activated platelets, using the phase-contrast cell adhesion assay described in Example 2 (FIG. 1 and FIG. 2). The antibodies were raised against various leukocytes and myeloid cell lines and are directed at leukocyte antigens. […] The percentage of cells displaying two or more adherent platelets was determined as described in Example 2.

[3] = system: binding of HL60 cells to COS/PADGEM cells; experiment: COS cell-PADGEM adhesion assay with labelled HL60 cells; assay type: cell-based, human
Procedure: COS cells (1×10^5) were transfected with 40 μg of the resulting PADGEM expression vector by calcium phosphate precipitation. Coverslips (12×12 mm) were added to each culture. After 48 hours of growth in DMEM--10% fetal calf serum, the COS cells were confluent.
HL60 cells (1×10^7), maintained in culture, were washed and resuspended in 0.5 ml of serum-free RPMI 1640. The cells were labeled with 270 μCi of ^111 In oxine (Callow et al., Arch. Surg., 117: 1447-1455 (1982)) and 10 μg of bis-carboxyethyl-carboxyfluorescein (Kolber et al., J. Immunol. Meth., 108: 255-264 (1988)) by incubation at 37° C. for 30 minutes. After washing with RPMI 1640--1% bovine serum albumin, the cells (1×10^6) were incubated with the coverslips containing confluent COS cell transfectants, in the presence or absence of LNF isomers, for 20 minutes at 37° C. The coverslips were washed with RPMI 1640, and duplicate coverslips were assayed for ^111 In activity. Alternatively, samples were evaluated for HL60 cell adherence by fluorescence and phase-contrast microscopy using a Zeiss Axioscope microscope in a blind assay. Inhibition of the binding of COS/PADGEM cells to U937 cells by the antibody 80H5 was performed in experiments identical to the procedure described above.
The results of a COS cell-PADGEM adhesion assay, in which the binding of ^111 In and bis-carboxyethyl-carboxyfluorescein-lableled HL60 cells to COS/PADGEM cells was monitored by assaying ^111 In activity (Example 2), are shown in FIG. 7. […] The inhibitory effect of LNF II was more apparent when the LNF to PADGEM ratio was high. […] It is possible that minor contamination of the LNF II preparation with LNF III can account for the inhibitory activity observed.
The inhibitory effects of LNF I, II, and III on the interaction of HL60 cells and COS/PADGEM was also studied morphologically in a blind assay. In these experiments, the binding of fluorescently labeled HL60 cells to COS/PADGEM cells was scored (Example 2).

cell viability = experiment: Cell viability by trypan blue exclusion; assay type: cell-based; conditions: trypan blue exclusion method
Mel-14 = conditions: literature report; cited from earlier work

IC50 ([2]; Homo sapiens, read-out: half-maximal inhibition of the adherence of activated platelets to neutrophils) | Structure (SMILES) | effect on ADP-induced platelet aggregation [1] | inhibitory activity on adherence of activated platelets to neutrophils ([2]; direct cell adhesion assay) | inhibition of binding of radiolabeled HL60 cells to COS/PADGEM cells ([3]; 111In activity, FIG. 7) | inhibition of binding of fluorescently labeled HL60 cells to COS/PADGEM cells ([3]; scored morphologically in a blind assay) | cell viability (cell viability) | inhibition of Mel-14-mediated lymphocyte-endothelial cell interaction (Mel-14)
~50 µg/mL (≈ 58.6 µM) | CC(=O)N[C@H]1[C@H](O[C@H]2[C@@H](O)[C@@H](CO)O[C@@H](O[C@H]3[C@H](O)[C@@H](O)C(O)O[C@@H]3CO)[C@@H]2O)O[C@H](CO)[C@@H](O[C@@H]2O[C@H](CO)[C@H](O)[C@H](O)[C@H]2O)[C@@H]1O[C@@H]1O[C@@H](C)[C@@H](O)[C@@H](O)[C@@H]1O (stereo partly shown) [LNF III, Galβ1-4(Fucα1-3)GlcNAcβ1-3Galβ1-4Glc] | equivalent in the presence or absence of LNF III | effective inhibitor | significantly inhibited | significant inhibitory activity | did not alter cell viability | 
 | O=P(O)(O)OC[C@H]1OC(O)[C@@H](O)[C@@H](O)[C@@H]1O (stereo partly shown) [mannose 6-phosphate] |  |  |  |  |  | inhibit
